Assay results: ChEMBL document CHEMBL1201862, “PubChem BioAssay data set” (2004)
Calls of active or inactive are those of the source.

Legend:
[1] = target: T1, Voltage-gated N-type calcium channel alpha-1B subunit/Amyloid beta A4 precursor protein-binding family A member 1 (Homo sapiens, UniProt Q00975+Q02410); assay: disruptors of Mint-PDZ/N-type channel peptide interaction – biochemical, HTRF, SAR follow-up (AID 2489); assay type: functional
[2] = target: T1, Voltage-gated N-type calcium channel alpha-1B subunit/Amyloid beta A4 precursor protein-binding family A member 1; assay: disruptors of Mint-PDZ/N-type channel peptide interaction – biochemical, HTRF, set 2, SAR follow-up (AID 434980); assay type: functional
SUMO E1/E2 = SUMO E1/E2 (Homo sapiens, UniProt P63279+Q9UBE0+Q9UBT2); assay: SAR analysis of SUMOylation using HTRF in an in-Vitro dose response assay. [Related pubchem assays (depositor defined):AID2006, AID2011, AID2018, AID2069, AID2658]; assay type: functional
[3] = target: T2, RNA-editing ligase 1, mitochondrial (Trypanosoma brucei brucei, UniProt P86926); assay: inhibition of trypanosome RNA editing ligase – biochemical, fluorescence, Trypanosoma brucei, dose response (AID 1117295); assay type: functional
T2 sequence (P86926 whole entry): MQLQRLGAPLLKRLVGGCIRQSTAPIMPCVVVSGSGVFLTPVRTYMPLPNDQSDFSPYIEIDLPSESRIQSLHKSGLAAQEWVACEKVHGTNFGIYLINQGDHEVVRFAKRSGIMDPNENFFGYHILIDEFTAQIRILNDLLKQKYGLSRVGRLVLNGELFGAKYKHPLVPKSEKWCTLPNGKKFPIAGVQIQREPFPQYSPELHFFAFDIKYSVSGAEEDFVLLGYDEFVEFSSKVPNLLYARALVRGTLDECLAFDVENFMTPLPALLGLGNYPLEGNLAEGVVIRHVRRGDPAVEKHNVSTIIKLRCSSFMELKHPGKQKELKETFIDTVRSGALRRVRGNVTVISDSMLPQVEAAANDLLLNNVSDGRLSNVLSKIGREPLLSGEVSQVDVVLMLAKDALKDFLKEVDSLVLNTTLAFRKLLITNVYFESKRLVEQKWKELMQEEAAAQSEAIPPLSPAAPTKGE

[4] = target: DNA repair protein RAD52 homolog (Homo sapiens, UniProt P43351); assay type: functional, biochemical
[5] = target: T3, Short transient receptor potential channel 4 (Mus musculus, UniProt Q9QUQ5); assay: block of DAMGO-driven TRPC4 calcium entry – cell-based, HEK293 TRPC4/mu-opioid, Fluo-4 calcium, dose response (AID 434942); assay type: functional;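 further: potency of inhibitors blocking the TRPC4 calcium response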
T3 sequence (Q9QUQ5 whole entry): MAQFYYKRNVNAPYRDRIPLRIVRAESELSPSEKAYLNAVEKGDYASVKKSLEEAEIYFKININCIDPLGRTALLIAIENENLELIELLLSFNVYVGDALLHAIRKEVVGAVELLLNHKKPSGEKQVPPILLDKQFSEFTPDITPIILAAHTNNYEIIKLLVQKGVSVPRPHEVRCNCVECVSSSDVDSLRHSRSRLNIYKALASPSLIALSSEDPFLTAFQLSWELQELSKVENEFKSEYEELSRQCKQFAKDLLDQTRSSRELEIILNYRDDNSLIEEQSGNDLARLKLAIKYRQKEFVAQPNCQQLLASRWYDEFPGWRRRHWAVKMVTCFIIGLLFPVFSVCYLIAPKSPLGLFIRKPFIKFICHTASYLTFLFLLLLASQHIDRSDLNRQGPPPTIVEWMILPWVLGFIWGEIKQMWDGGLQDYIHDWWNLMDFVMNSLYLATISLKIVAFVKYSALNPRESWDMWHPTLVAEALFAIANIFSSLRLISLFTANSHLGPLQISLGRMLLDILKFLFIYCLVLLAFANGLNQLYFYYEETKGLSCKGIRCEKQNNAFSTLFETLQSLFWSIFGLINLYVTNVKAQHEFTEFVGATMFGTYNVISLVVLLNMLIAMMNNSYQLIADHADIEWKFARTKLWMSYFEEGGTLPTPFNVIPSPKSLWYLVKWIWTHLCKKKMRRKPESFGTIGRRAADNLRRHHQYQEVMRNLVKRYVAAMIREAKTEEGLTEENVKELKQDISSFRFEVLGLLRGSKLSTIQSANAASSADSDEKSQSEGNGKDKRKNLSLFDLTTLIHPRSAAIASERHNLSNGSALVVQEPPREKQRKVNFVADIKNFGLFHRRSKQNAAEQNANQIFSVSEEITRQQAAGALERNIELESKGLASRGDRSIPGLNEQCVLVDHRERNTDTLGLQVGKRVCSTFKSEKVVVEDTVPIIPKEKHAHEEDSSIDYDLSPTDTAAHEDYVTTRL

[6] = HEK-293T viability loss after treatment – luminescence, T-cell screen hits, cytotoxicity control for TCR NF-kB inhibitor project, dose response (AID 489026); assay type: functional, cell-based;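 further: cells exposed to compound about 14 hours before the viability readout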
[7] = MIN6 cell viability loss – mouse insulinoma, cytotoxicity control, dose response (AID 2122); assay type: functional;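 further: confirmatory high-throughput counterscreen run to flag cytotoxic compounds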
[8] = target: Guanyl-specific ribonuclease T1 (Aspergillus oryzae (strain ATCC 42149 / RIB 40), UniProt P00651); assay: inhibition of ribonuclease T1 activity – biochemical, fluorescence polarization, 1536-well, counter-screen for TPT1 inhibitor project, dose response (AID 2167)
[9] = target: Likely tRNA 2'-phosphotransferase (Candida albicans (strain SC5314 / ATCC MYA-2876) (Yeast), UniProt Q5A7N4); assay: inhibition of Candida TPT1 enzyme activity – biochemical, fluorescence polarization, dose response (AID 2160)
[10] = target: T4, Microphthalmia-associated transcription factor (Homo sapiens, UniProt O75030); assay: reducers of TRPM1 reporter luminescence, concentration series – cell-based, SK-MEL-5, cherry-picked, set 3, MITF inhibitor project, dose response (AID 493073); assay type: functional;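 further: SK-MEL-5 melanoma cells with luciferase driven by the MITF target TRPM1 promoter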
T4 sequence (O75030 whole entry): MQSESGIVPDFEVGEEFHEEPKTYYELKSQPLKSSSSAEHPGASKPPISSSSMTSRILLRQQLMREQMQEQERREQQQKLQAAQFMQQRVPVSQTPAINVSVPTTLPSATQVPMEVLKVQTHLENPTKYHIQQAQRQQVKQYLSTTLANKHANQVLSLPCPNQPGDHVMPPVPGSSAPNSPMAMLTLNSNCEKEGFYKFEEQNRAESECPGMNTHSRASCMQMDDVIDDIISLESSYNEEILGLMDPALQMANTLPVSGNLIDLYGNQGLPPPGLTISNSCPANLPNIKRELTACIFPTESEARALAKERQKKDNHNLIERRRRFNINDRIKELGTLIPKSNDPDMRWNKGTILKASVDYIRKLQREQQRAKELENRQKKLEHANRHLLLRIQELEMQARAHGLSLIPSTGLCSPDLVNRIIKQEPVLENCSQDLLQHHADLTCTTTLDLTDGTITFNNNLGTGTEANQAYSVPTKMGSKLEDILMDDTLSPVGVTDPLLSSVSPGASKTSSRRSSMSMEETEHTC

Nonstructural protein 1 = Nonstructural protein 1 (Influenza A virus, UniProt Q194T2); assay type: functional, Influenza A virus (A/California/07/2009(H1N1))
INS1 = assay: INS-1E survival protection against cytokine death – cell-based, luminescence, retest, dose response (AID 449756); assay type: functional; conditions: Rattus norvegicus;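 further: cell death triggered by IL-1 beta plus TNF-alpha plus IFN-gamma mixture; protective hits raise ATP signal compared with cytokine alone wells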
[11] = decrease of insulin promoter-GFP reporter – imaging, high-content screening, mouse beta cells (AID 1628); assay type: functional; conditions: MIN6
[12] = target: T5, Heat shock factor protein 1 (Mus musculus, UniProt P38532); assay: decrease of HSF1-responsive luciferase luminescence – cell-based, NIH3T3, dose retest, confirmation (AID 2382); assay type: functional;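 further: NIH3T3 fibroblasts with HSF1-driven luciferase reporter stressed by proteasome inhibitor MG132; luminescence from HSF1-driven luciferase expression after 8 hours of MG132 stress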
T5 sequence (P38532 whole entry): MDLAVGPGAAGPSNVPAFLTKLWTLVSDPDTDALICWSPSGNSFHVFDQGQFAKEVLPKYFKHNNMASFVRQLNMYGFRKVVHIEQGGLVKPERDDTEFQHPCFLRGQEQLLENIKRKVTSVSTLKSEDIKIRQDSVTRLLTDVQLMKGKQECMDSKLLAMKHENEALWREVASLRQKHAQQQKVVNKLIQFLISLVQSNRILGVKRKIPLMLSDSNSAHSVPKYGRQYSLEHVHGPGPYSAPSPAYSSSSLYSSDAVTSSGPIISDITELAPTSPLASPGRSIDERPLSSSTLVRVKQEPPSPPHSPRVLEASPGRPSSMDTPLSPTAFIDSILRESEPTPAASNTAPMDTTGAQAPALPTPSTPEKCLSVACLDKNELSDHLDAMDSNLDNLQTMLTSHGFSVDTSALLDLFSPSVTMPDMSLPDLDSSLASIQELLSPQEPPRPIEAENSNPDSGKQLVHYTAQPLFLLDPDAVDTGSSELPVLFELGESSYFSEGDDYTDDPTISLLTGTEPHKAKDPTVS

Vibrio harveyi [13] = assay: LuxS/LuxPQ-dependent luminescence inhibition, V. harveyi – dry powder, set 2, dose response (AID 493072); assay type: functional, organism-based
Vibrio harveyi [14] = assay: Quorum Sensing, LuxS, LuxPQ Measured in Microorganism System Using Plate Reader - 2035-01_Inhibitor_DoseNoFile_DryPowder_Activity. [Related pubchem assays (depositor defined):AID2106]; assay type: functional, organism-based
[15] = target: T6, Type-1 angiotensin II receptor (Homo sapiens, UniProt P30556); assay: agonist activity at AGTR1 – cell-based, uHTS hits, selectivity assay for APJ receptor agonist project, dose response (AID 488865); assay type: functional;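 further: beta-arrestin recruitment to AT1 measured by enzyme fragment complementation luminescence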
T6 sequence (P30556 whole entry): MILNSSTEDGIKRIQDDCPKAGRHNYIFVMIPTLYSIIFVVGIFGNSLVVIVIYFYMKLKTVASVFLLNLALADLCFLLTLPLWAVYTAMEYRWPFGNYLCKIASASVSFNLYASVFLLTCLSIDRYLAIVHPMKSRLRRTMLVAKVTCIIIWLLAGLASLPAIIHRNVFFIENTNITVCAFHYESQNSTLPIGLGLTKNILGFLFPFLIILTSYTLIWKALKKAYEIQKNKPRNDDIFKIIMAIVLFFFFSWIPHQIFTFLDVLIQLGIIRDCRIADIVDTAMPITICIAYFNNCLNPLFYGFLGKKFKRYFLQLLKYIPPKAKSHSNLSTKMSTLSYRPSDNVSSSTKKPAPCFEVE

Beta-galactosidase = Beta-galactosidase (Escherichia coli, UniProt Q8VNN2); assay: detection-enzyme interference by beta-gal modulators – biochemical, E. coli enzyme, set 3, artefact control for CCR6 antagonist project, dose response (AID 504712); assay type: functional
SUMO-activating enzyme [16] = target: T7, SUMO-activating enzyme (Homo sapiens, UniProt Q9UBT2); assay: blockers of SAE1/SAE2–UBC9 SUMO transfer – biochemical, HTRF, uHTS, primary screen (AID 2006); assay type: protein-complex assay
[17] = target: C-C chemokine receptor type 6 (Homo sapiens, UniProt P51684); assay: antagonism of CCR6 beta-arrestin recruitment – cell-based, luminescent beta-arrestin readout, dose response (AID 504728); assay type: functional
[18] = reduction of Shn3 3'UTR-driven luciferase in osteoblasts – cell-based, Clone20 osteoblasts, firefly luciferase, cherry-picked, dose response (AID 624132); assay type: functional;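 further: firefly luciferase luminescence from reporter carrying the Shn3 3'UTR in osteoblasts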
SUMO-activating enzyme [19] = target: T7, SUMO-activating enzyme; assay: blockers of UBC9-mediated SUMO conjugation – biochemical, AlphaScreen, SUMOylation inhibitor project, confirmation (AID 2018); assay type: functional
[20] = Luminescence Cell-Based Dose Retest to Confirm Inhibitors of Cancer Stem Cells. [Related pubchem assays (depositor defined):AID2717, AID2721]; assay type: functional; conditions: Homo sapiens
[21] = IC50 of Artemis nuclease activity blockers – biochemical, fluorescence intensity, dose response (AID 720701); assay type: functional;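 further: Artemis endonuclease enzyme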
[22] = target: Neurotensin receptor type 1 (Homo sapiens, UniProt P30989); assay type: functional;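 further: Image-based confirmatory dose-response assay measuring agonist activity at NTR1; NTR1-expressing U2OS osteosarcoma cells imaged for beta-arrestin GFP spot formation; agonist potency where compounds increase beta-arrestin recruitment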
[23] = non-specific 3'UTR reporter inhibition in Clone20-Shn3RL – cell-based, Renilla luciferase, cherry-picked, counter-screen for Shn3 inhibitor project, dose response (AID 624133); assay type: functional

T7 sequence (Q9UBE0 whole entry): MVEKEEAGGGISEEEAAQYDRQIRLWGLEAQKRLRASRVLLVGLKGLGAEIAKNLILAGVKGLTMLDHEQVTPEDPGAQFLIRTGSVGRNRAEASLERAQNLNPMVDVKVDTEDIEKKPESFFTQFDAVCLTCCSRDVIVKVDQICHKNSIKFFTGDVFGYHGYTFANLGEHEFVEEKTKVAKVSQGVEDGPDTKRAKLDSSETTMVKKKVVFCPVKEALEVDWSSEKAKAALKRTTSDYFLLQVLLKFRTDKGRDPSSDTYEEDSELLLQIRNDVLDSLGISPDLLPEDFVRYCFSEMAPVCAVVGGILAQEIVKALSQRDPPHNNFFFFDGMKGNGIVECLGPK
T7 sequence (Q9UBT2 whole entry): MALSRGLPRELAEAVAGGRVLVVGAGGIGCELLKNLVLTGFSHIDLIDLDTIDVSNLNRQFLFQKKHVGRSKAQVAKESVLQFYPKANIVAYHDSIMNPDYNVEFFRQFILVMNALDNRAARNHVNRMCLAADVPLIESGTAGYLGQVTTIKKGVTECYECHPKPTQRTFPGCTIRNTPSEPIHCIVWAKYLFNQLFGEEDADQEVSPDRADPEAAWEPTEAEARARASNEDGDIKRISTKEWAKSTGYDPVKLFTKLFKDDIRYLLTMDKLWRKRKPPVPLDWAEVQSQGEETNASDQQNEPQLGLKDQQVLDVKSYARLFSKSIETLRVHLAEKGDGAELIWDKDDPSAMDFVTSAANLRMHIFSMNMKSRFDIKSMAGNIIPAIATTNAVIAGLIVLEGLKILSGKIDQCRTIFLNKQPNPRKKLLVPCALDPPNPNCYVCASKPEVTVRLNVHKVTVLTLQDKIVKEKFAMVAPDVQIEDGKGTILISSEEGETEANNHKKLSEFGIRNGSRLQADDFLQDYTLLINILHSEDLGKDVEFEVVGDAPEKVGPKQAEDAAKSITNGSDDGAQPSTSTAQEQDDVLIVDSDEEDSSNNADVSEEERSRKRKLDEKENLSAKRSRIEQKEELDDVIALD
T1 sequence (Q00975 whole entry): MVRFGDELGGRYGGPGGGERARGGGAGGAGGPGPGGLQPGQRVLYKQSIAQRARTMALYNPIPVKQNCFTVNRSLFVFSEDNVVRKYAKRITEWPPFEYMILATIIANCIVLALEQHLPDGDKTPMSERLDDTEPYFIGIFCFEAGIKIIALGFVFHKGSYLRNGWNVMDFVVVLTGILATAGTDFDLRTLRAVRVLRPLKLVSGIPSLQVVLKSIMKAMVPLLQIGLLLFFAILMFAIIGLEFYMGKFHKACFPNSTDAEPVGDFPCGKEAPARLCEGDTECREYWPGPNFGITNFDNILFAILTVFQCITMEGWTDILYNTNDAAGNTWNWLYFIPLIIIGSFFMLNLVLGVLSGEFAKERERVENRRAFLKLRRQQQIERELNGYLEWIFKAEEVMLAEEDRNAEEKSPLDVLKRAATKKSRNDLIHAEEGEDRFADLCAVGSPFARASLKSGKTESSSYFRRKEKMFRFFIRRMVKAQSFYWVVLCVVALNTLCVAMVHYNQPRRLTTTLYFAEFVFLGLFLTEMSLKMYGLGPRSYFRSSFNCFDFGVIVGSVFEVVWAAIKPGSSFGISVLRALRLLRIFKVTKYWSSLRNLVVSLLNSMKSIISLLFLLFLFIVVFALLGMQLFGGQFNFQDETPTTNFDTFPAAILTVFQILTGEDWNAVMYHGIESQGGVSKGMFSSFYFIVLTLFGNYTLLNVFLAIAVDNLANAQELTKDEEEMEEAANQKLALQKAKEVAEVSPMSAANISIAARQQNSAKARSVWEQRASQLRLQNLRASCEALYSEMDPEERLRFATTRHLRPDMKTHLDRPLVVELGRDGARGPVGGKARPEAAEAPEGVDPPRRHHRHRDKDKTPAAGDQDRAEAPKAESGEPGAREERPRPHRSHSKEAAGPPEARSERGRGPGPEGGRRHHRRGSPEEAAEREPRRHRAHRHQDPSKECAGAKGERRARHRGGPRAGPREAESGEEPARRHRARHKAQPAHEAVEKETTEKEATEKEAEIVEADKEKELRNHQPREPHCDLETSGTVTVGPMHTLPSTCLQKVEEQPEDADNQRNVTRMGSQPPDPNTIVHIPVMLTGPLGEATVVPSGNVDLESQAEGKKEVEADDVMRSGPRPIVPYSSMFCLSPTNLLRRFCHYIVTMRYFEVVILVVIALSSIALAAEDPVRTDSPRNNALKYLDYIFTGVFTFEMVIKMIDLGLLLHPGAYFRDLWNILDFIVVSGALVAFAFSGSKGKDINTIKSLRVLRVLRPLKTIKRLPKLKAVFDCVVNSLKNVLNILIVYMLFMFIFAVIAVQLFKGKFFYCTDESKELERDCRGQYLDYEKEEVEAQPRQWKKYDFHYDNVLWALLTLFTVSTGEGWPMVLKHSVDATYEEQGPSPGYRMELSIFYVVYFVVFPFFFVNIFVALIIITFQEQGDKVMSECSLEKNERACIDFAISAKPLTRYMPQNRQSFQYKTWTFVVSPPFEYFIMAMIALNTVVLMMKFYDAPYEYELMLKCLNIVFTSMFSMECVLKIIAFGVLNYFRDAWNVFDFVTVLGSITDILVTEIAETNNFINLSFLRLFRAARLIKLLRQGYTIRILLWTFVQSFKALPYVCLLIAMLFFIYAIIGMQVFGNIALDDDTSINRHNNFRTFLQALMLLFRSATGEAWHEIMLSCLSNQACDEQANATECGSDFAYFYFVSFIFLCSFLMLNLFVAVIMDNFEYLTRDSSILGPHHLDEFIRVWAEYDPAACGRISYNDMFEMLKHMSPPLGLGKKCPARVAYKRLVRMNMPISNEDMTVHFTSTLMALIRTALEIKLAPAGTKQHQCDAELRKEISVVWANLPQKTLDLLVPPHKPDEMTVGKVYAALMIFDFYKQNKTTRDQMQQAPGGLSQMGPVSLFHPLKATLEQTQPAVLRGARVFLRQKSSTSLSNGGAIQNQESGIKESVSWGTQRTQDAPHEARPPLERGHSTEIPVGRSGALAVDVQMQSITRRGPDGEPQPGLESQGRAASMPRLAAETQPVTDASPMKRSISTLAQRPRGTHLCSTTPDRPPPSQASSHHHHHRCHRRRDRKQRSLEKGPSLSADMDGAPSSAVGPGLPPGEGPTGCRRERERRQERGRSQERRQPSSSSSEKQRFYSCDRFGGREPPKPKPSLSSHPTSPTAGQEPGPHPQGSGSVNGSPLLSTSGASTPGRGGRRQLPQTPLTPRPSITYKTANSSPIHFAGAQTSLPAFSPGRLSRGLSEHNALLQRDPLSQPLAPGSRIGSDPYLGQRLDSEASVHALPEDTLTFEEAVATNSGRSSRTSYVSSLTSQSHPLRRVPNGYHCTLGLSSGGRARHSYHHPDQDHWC
T1 sequence (Q02410 whole entry): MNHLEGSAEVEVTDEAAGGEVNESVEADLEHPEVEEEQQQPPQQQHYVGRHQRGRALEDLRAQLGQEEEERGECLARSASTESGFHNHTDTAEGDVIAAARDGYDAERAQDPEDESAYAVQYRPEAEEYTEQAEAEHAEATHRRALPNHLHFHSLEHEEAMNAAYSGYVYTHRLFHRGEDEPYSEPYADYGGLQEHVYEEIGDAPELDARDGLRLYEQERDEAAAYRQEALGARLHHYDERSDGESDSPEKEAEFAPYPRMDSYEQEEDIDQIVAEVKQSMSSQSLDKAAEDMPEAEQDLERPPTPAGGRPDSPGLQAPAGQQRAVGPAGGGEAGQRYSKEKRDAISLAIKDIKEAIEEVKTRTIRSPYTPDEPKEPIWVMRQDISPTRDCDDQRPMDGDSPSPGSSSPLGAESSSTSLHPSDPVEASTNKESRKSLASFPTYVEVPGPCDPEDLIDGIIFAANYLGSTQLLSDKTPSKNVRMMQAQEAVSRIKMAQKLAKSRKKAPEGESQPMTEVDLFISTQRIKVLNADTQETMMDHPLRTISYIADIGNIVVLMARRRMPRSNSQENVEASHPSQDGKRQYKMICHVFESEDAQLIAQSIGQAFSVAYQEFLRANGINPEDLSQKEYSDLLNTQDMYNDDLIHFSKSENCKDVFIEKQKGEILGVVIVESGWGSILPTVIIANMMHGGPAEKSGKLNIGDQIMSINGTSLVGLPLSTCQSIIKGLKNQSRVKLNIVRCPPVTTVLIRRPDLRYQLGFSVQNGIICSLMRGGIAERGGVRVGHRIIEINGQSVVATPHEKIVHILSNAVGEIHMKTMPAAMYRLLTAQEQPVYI
Sequence of SUMO E1/E2 (Q9UBE0 whole entry): as the sequence (Q9UBE0 whole entry) above
Sequence of SUMO E1/E2 (Q9UBT2 whole entry): as the sequence (Q9UBT2 whole entry) above
Sequence of SUMO E1/E2 (P63279 whole entry): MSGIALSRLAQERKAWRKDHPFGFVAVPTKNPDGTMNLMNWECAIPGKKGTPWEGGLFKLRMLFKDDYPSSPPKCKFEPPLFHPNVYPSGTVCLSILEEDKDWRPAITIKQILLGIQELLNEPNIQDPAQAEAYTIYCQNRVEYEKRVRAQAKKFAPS
Sequence of Likely tRNA 2'-phosphotransferase (Q5A7N4 whole entry): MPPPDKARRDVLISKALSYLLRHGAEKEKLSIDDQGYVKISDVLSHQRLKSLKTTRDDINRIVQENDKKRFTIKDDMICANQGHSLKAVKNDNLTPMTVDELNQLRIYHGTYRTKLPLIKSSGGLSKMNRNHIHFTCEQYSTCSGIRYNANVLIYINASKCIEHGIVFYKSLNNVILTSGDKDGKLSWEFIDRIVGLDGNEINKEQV
Sequence of Nonstructural protein 1 (Q194T2 whole entry): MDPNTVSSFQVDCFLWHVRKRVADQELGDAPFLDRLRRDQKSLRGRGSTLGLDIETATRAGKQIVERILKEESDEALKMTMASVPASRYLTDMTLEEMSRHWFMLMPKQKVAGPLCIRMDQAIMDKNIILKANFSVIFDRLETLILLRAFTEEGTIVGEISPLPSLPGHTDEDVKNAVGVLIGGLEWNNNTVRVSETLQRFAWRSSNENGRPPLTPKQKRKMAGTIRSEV
Sequence of Guanyl-specific ribonuclease T1 (P00651 whole entry): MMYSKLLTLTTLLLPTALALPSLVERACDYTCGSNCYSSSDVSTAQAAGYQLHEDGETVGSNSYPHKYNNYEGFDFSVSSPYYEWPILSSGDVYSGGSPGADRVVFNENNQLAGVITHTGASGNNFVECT

SMILES: COc1ccc(CNC(=O)COC(=O)c2cc(-c3ccc(C)o3)nc3ccccc23)cc1
- IC50 [1]: > 56.8 µM (inactive)
- IC50 [2]: > 56.8 µM (inactive)
- IC50 (SUMO E1/E2): 4 µM (active)

SMILES: CCCCCC[N+](C)(C)CC/C=C1/c2ccccc2Sc2ccc(Cl)cc21
- IC50 [3]: > 96.6 µM (inactive)
- AC50 [4]: 10.2 µM (active)
- EC50 [5]: 0.299 µM (active)

SMILES: Cn1cc(C(=O)N/N=C/c2c(O)ccc3ccccc23)ccc1=O
- IC50 [6]: > 80 µM (inactive)
- IC50 [7]: 4.04 µM (active)
- IC50 [8]: > 55.7 µM (not active)
- IC50 [9]: > 55.7 µM (not active)
- AC50 [10]: 2.55 µM (active)
- IC50 (Nonstructural protein 1): > 100 µM (active)
- AC50 (INS1): 0.774 µM (active)
- IC50 [11]: 4.33 µM (active)

SMILES: COc1cc(NC(=O)CN2C(=O)NC(c3ccccc3)(c3ccccc3)C2=O)cc(OC)c1
- EC50 [12]: > 195 µM (not active)
- AC50 (Vibrio harveyi [13]): 0.77 µM (active)
- AC50 (Vibrio harveyi [13]; Vibrio harveyi): 0.671 µM (active)
- AC50 (Vibrio harveyi [14]): 0.594 µM (active)

SMILES: CC1=NOC(=O)/C1=C\c1ccc(-c2cc(Cl)ccc2Cl)o1
- EC50 [15]: > 100 µM (inactive)
- IC50 (Beta-galactosidase): > 66.6 µM (inactive)
- IC50 (SUMO-activating enzyme [16]): 11.5 µM (active)
- IC50 [17]: > 66.6 µM (inactive)
- AC50 [18]: 5.69 µM (active)
- IC50 (SUMO-activating enzyme [19]): 4.89 µM (active)
- AC50 [20]: 1.04 µM (active)
- IC50 [21]: > 20 µM (inactive)
- EC50 [22]: 7.5 µM (active)
- AC50 [23]: 9.55 µM (active)
